Conditions: Liquid, Hot wire method

CCCCOCCO [2-butoxyethan-1-ol]
Conditions | thermal conductivity [W/m/K]
283.96 K | 0.1381
293.67 K | 0.1365
303.56 K | 0.135
314.25 K | 0.1333
323.88 K | 0.1319
333.98 K | 0.1305
344.05 K | 0.129
354.63 K | 0.1272
363.59 K | 0.1258
373.84 K | 0.1241

CCC(C)=O [butanone]
Conditions | thermal conductivity [W/m/K]
284.48 K | 0.1501
294.42 K | 0.1481
305.02 K | 0.1459
314.26 K | 0.1435
323.96 K | 0.1414
334.71 K | 0.139
344.54 K | 0.1362
354.33 K | 0.1334
364.46 K | 0.1308
374.56 K | 0.1284

COC [dimethyl ether]
Conditions | thermal conductivity [W/m/K]
229.67 K | 0.1832
244.98 K | 0.1762
254.6 K | 0.1701
271.55 K | 0.1605
281.76 K | 0.1537
291.33 K | 0.1485

Cc1ccccc1 [toluene]
Conditions | thermal conductivity [W/m/K]
234.6 K | 0.1477
254.58 K | 0.1434
273.17 K | 0.1374
293.23 K | 0.1334
314.68 K | 0.1264
334.99 K | 0.1211
354.89 K | 0.1136
373.92 K | 0.1105

Reference: the NIST ThermoML archive (doi:10.1021/je049818g)
